# Experimental data taken from US8039501B2, “Synephrine derivatives useful as anti-inflammatory agents” (Universiteit Gent, priority 2005, dated 2011).
# Tests used:
# [1] = test system: FLS cells (fibroblast-like synoviocytes); test: Q-PCR/ELISA gene expression in primary FLS of RA patients; assay type: cell-based, human
# Experimental: (§1) CpdA was synthesized as described previously. […] They were sacrificed and livers were isolated. […] Gene expression of HPRT was used for normalization. […] Gene expression of HPRT was used for normalization. […] Gene expression of HPRT was used for normalization. Statistical significance was determined by one way anova. […] Gene expression of HPRT was used for normalization. […] Gene expression of HPRT was used for normalization. Statistical significance was determined by one way anova. […] Statistical significance was determined with a Kruskal-Wallis test.
# Western blot analysis was performed on total protein extracts with an anti-GR(H-300) antibody. The detection of ERK was used as a loading control. After 8 days of treatment liver samples were taken from the PBS, DEX (20 μg) or CpdA (300 μg) treated DBA/1 mice (FIG. 22B). Q-PCR was performed for the detection of GR in the different samples. Statistical significance was determined with a Mann-Whitney Test. FLS were pre-treated with solvent, DEX (1 μM) or CpdA (10 μM) for 1 hour (set-up 1) or 24 hours (set-up 2), as indicated in the figures. Afterwards, TNF (2000 units/ml) was added for 6 h. Western blot analysis was performed on total extracts with an anti-GR(H-300) antibody (FIG. 19A). Detection of ERK was used as a loading control. The Human Inflammation Array was incubated with medium of cultured FLS and developed following the manufacturer's instruction (FIG. 19B). Total RNA was isolated from the induced FLS and subjected to reverse transcriptase PCR. […] Gene expression of HPRT was used for normalization. Statistical significance was determined by one way anova. […] Since it has been proposed that the cellular sensitivity to GC is directly proportional to the receptor concentration, the mechanism of homologous down-regulation appears to drastically affect the cellular sensitivity of primary human RA-FLS to GC therapy. […] Such an effect can not be observed with CpdA. […] Therefore, it is not surprising that some patients who develop resistance to the therapeutic effects of GC, still display the unwanted effects associated with prolonged GC treatment. […] All publications and patent applications mentioned in this specification are herein incorporated by reference to the same extent as if each independent publication or patent application was specifically and individually indicated to be incorporated by reference. Other embodiments are within the scope of the claims.
# [2] = test system: NF-κB; test: EMSA of NF-κB DNA binding in Namalwa B cells; assay type: cell-based, human; conditions: 10, 0.1, 0.01, 0.001 μM, TNF 2000 IU/ml, FIG. 8B
# [3] = test system: MM1.S cell lines; test: Annexin V/PI assay in MM1.S cells; assay type: cell-based, human; conditions: 10^-5 M, FIG. 13
# Experimental: 1. […] Procedure: • Human multiple myeloma cell lines L363, U266, MM1.S and MMR.1 are cultured in RPMI 1640 with Glutamax-I, supplemented with 10% FCS, 100 U/ml penicillin and 100 μg/ml streptomycin. Cells are counted and resuspended in fresh medium at a concentration of 1×10^6/ml. Next, 1 ml of cell suspension is transferred to 5 ml culture tubes in the presence of test compounds (DEX, CpdA, CpdA analogues: 10^−7 to 10^−4 M) or vehicle (EtOH) and incubated for 24 or 48 hours at 37° C. • Double-staining of the cells with PI and annexin V is performed according to the instructions of the Annexin V kit (BD Biosciences). • Double-stained cells are analyzed by flow cytometry. […] Graphs are represented as the ratio of early apoptotic cells versus late apoptotic cells (a) or as total % of living cells (b).
# [4] = Serum ELISA of osteoclast and osteoblast markers in DBA/1 mice; conditions: 300 μg daily, 8 days
# Source text: DBA/1 mice—Male 8- to 12-wk-old DBA/1 mice were purchased from Janvier and housed following institutional guidelines. All animal procedures were approved by the institutional animal care and ethics committee. […] The human IL-6 and IL-8 cytoset were purchased from BioSource International, Inc. For the detection of TRAP5b in DBA/1 mice serum we used the Mouse TRAP Assay, purchased from Immunodiagnostic systems limited. The osteocalcin EIA kit was purchased from Biomedical Technologies, Inc. All assays were performed according to the manufacturer's instructions.
# [5] = biological target: T1, glucocorticoid receptor (GR) (Homo sapiens, UniProt P04150); test: Western blot of homologous down-regulation of GR in FLS; assay type: cell-based; conditions: 10 μM, 3, 6, 9 or 24 hours, FIG. 22A
# T1 construct: endogenous in cells; host or cells: primary fibroblast-like synoviocytes from RA patients
# T1 sequence (P04150 1-777): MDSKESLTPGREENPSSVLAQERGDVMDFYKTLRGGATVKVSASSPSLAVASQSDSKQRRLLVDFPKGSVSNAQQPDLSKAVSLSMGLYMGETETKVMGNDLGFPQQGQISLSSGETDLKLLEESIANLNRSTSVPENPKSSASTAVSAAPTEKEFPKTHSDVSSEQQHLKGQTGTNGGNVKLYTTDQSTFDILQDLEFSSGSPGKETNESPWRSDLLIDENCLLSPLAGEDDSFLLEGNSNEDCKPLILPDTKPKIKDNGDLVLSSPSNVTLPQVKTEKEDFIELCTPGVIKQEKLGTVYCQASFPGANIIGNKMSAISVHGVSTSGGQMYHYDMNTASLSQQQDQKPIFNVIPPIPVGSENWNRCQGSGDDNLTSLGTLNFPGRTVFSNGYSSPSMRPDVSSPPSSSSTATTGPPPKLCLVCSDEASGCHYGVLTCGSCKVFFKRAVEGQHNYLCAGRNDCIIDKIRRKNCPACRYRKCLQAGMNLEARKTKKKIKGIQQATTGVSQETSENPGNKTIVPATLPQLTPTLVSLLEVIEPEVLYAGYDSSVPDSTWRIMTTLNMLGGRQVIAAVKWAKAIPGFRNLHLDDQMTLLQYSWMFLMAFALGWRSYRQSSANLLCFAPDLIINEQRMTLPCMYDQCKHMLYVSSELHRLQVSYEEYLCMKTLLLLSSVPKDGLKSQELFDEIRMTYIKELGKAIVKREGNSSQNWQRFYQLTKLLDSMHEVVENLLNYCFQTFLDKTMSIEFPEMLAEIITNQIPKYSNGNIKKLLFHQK
# Experimental: as §1
# Western blot analysis was performed on total protein extracts with an anti-GR(H-300) antibody. The detection of ERK was used as a loading control. After 8 days of treatment liver samples were taken from the PBS, DEX (20 μg) or CpdA (300 μg) treated DBA/1 mice (FIG. 22B). Q-PCR was performed for the detection of GR in the different samples. Statistical significance was determined with a Mann-Whitney Test. FLS were pre-treated with solvent, DEX (1 μM) or CpdA (10 μM) for 1 hour (set-up 1) or 24 hours (set-up 2), as indicated in the figures. Afterwards, TNF (2000 units/ml) was added for 6 h. Western blot analysis was performed on total extracts with an anti-GR(H-300) antibody (FIG. 19A). Detection of ERK was used as a loading control. […] Statistical significance was determined by one way anova. […]
smiles,measurement,setting,value
"CNCC(Cl)c1ccc(OC(C)=O)cc1.Cl (stereo not drawn) [CpdA, 2-(4-acetoxyphenyl)-2-chloro-N-methyl-ethylammonium chloride]","Repression of TNF-induced MCP-1, IL-8 and IL-6 after prolonged treatment (set-up 2)","[1]; 10 μM pre-treated 24 hours, TNF 2000 units/ml 6 h, FIG. 19","still able to repress the TNF-induced expression of MCP-1, IL-8 and IL-6"
same,RANKL/OPG ratio,"[1]; 10 μM, 24 hours",does not alter the RANKL/OPG ratio
same,Expression of cathepsin K,"[1]; 10 μM, 24 hours, FIG. 18",does not stimulate the expression of cathepsin K
same,Expression of osteoclast differentiation markers M-CSF and RANKL,"[1]; 10 μM, 24 hours, FIG. 18, RANKL solvent versus CpdA p>0.05",does not stimulate the expression
same,Expression of OPG,"[1]; 10 μM, 24 hours, FIG. 18, solvent versus CpdA p>0.05",does not down-regulate the expression of OPG
same,Transactivation function of GR (GRE-driven PCOLCE2 and GS expression),"[1]; 10 μM, FIG. 20",does not evoke the transactivation function of GR
same,Expression of pro-inflammatory mediators (anti-inflammatory effect),"[1]; 10 μM, TNF 2000 U/ml 6 hours, FIG. 17",anti-inflammatory effect
same,NF-κB binding to kB DNA sequence (EMSA),[2],inhibits NF-κB binding to kB DNA sequence
same,Apoptosis (Annexin V/PI staining),[3],"able to mediate apoptosis in the MM1.S cell lines at 10-5 M, to a much higher extent than Dex"
same,Amount of active osteoclasts (TRAP5b) in serum,[4]; FIG. 21A,does not alter the amount of active osteoclasts (TRAP5b)
same,Osteocalcin levels in mouse serum,[4]; FIG. 21B,does not significantly alter the osteocalcin levels in mouse serum
same,Ligand-induced down-regulation of the glucocorticoid receptor (GR),[5],does not evoke a ligand-induced down-regulation of the glucocorticoid receptor (GR)
